Test results reported in ChEMBL document CHEMBL1201862, “PubChem BioAssay data set” (2004).
Where a name gives a salt, the structure may show the parent alone.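 Where inhibition never reached the appropriate level, the endpoint shown equals the highest concentration tested. Otherwise, values were interpolated linearly from a five-concentration, 48-hour dose response in 96-well plates. Here, GI50 denotes the concentration required for 50% inhibition of growth.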 Activity calls are given as the source filed them. Rule as the data show it: active = GI50 up to about 1.1 µM and inactive = higher.

Assays:
Test in all cases: NCI anticancer screen, dose series, 48 h
[1] = system: DMS-114
[2] = system: DMS-273
[3] = system: Hs-578T
[4] = system: KM-20L2
[5] = system: LXFL 529
[6] = system: M19-MEL
[7] = system: RXF 631
[8] = system: SNB-78
[9] = system: XF498

CN(C)CC1CCCCCCCCCC(CN(C)C)C1=O (stereo not drawn)
GI50 [1]: > 100 µM (inactive) | GI50 [2]: > 100 µM (inactive) | GI50 [3]: 8.18 µM (inactive) | GI50 [4]: 61.4 µM (inactive) | GI50 [5]: > 100 µM (inactive) | GI50 [6]: 63.1 µM (inactive) | GI50 [7]: > 100 µM (inactive) | GI50 [8]: > 100 µM (inactive) | GI50 [9]: > 100 µM (inactive)

CC[C@@]1(O)C(=O)OCc2c1cc1n(c2=O)Cc2cc3c(CN(C)C)c(O)ccc3nc2-1 [TOPOTECAN HYDROCHLORIDE]
GI50 [1]: 0.0187 µM (active) | GI50 [2]: 0.0191 µM (active) | GI50 [3]: 1.1 µM (active) | GI50 [4]: 0.146 µM (active) | GI50 [5]: 2.29 µM (inactive) | GI50 [6]: 0.0649 µM (active) | GI50 [7]: 0.375 µM (active) | GI50 [8]: 4.71 µM (inactive) | GI50 [9]: 0.0387 µM (active)

C/C(=N\NC(=O)C[N+](C)(C)C)c1sc(-c2cccnc2)nc1C
GI50 [1]: > 100 µM (inactive) | GI50 [2]: > 100 µM (inactive) | GI50 [4]: > 100 µM (inactive) | GI50 [5]: 67 µM (inactive) | GI50 [6]: > 100 µM (inactive) | GI50 [7]: > 100 µM (inactive) | GI50 [8]: > 100 µM (inactive) | GI50 [9]: > 100 µM (inactive)

NC(CCCNc1ccc(O)cc1)C(=O)O (stereo not drawn)
GI50 [1]: 24.9 µM (inactive) | GI50 [2]: > 100 µM (inactive) | GI50 [4]: > 100 µM (inactive) | GI50 [5]: 18.3 µM (inactive) | GI50 [6]: 18.2 µM (inactive) | GI50 [7]: 54.3 µM (inactive) | GI50 [8]: > 83.6 µM (inactive) | GI50 [9]: 22.5 µM (inactive)

COC(=O)C(=O)C(C(=O)C(=O)Nc1ccc([N+](=O)[O-])cc1[N+](=O)[O-])c1nc2ccc([N+](=O)[O-])cc2nc1O (stereo not drawn)
GI50 [1]: > 100 µM (inactive) | GI50 [2]: > 100 µM (inactive) | GI50 [4]: > 100 µM (inactive) | GI50 [5]: > 100 µM (inactive) | GI50 [6]: > 100 µM (inactive) | GI50 [7]: > 100 µM (inactive) | GI50 [8]: > 100 µM (inactive) | GI50 [9]: 76.7 µM (inactive)

N=C(NC(=N)Nc1ccc(S(=O)(=O)Nc2cnc3ccccc3n2)cc1)Nc1ccc(Br)cc1
GI50 [1]: > 100 µM (inactive) | GI50 [2]: > 100 µM (inactive) | GI50 [4]: > 100 µM (inactive) | GI50 [5]: > 100 µM (inactive) | GI50 [6]: > 100 µM (inactive) | GI50 [7]: > 100 µM (inactive) | GI50 [8]: > 100 µM (inactive) | GI50 [9]: > 100 µM (inactive)

Cn1cc2ccccc2c1-c1nc(F)nc(Nc2ccc(N)cc2)n1
GI50 [1]: 17.7 µM (inactive) | GI50 [2]: 10.2 µM (inactive) | GI50 [4]: 18 µM (inactive) | GI50 [5]: 16 µM (inactive) | GI50 [6]: 11.9 µM (inactive) | GI50 [7]: 18.3 µM (inactive) | GI50 [8]: 15.2 µM (inactive) | GI50 [9]: 12.5 µM (inactive)
